The experiment deals with abdominal aortic aneurysm. The experiment can be described thus: rat abdominal aortic aneurysm induction model (catheter inserted in abdominal aorta and ligated, high-fat feed). The format is in vivo, SD-male rats. As to conditions: for Occurrence not confirmed (abdominal aortic aneurysm) / Occurrence confirmed (abdominal aortic aneurysm): number of rats; for Rupture rate (%) of abdominal aortic aneurysm: rats with observed abdominal aortic aneurysms; for Rupture rate (%) of abdominal aortic aneurysm / Frequency of occurrence (%) (Table 4, Rupture rate of abdominal aortic aneurysm): control group 28.6%; for survival rate (%): Example 2, FIG. 1; for diameter of the aorta in the abdominal aortic aneurysm induction part: Example 2, FIG. 2, control group about 4 mm; for Occurrence not confirmed (Table 4, Rupture rate of abdominal aortic aneurysm): rupture not observed; for Frequency of occurrence (%) (Table 4, Rupture rate of abdominal aortic aneurysm): rupture rate in rats with observed abdominal aortic aneurysms. As for the experimental part: SD-male rats of 4 weeks old (70 g to 90 g) were used. Eighteen rats and eight rats were prepared as a control group and a medium chain fatty acid administration group, respectively.
Upon arrival, all rats were preliminarily fed normal feed without additional supplements for one week. Then, the medium chain fatty acid administration group was fed normal feed and forcibly administered with high-content neutral fats (decanoic acid occupied 98% of constituent fatty acids) in an amount of 1,145 mg/kg body-weight/day. The control group was fed normal feed and forcibly administered with water in an amount of 1,145 mg/kg body-weight/day.
In this test, the medium chain fatty acid was fed in the form of tricaprin. Tricaprin is a substance in which decanoic acid (C10), a linear saturated fatty acid having 10 carbon atoms, is bonded to glycerol.
From the second week after the arrival, all rats were fed high-fat feed. Then, the medium chain fatty acid administration group was forcibly administered with the high-content neutral fats in an amount of 1,145 mg/kg body-weight/day. Furthermore, the control group was forcibly administered with water in an amount of 1,145 mg/kg body-weight/day.
Three weeks after the arrival, an abdominal aortic aneurysm induction treatment was performed. In the abdominal aortic aneurysm induction treatment, a catheter is inserted in the rat abdominal aorta and the inserted catheter is ligated with the abdominal aorta. The treatment was performed according to the method disclosed in Patent Literature 3.
After that, for the next four weeks, the control group had been fed the high-fat feed and forcibly administered with water in an amount of 1,145 mg/kg body-weight/day. Furthermore, the medium chain fatty acid administration group had been fed the high-fat feed and forcibly administered with the high-content neutral fats. Then, four weeks after the abdominal aortic aneurysm induction treatment, the rats were euthanized and dissected.
Note that the abdominal aortic aneurysm was determined to have occurred if the blood vessel at the site where the abdominal aortic aneurysm induction treatment was performed dilated to twice or more its original thickness.
Next, test results obtained by using tricaprin (an ester of three decanoic acids and glycerol) and tricaprylin (an ester of three octanoic acids of C8 and glycerol) as the medium chain fatty acid is shown. The animal model preparation method is the same as that in Example 1. A group in which tricaprin (C10) was given is referred to as a tricaprin administration group and a group in which tricaprylin (C8) was given is referred to as a tricaprylin administration group.
Twenty-three, eleven, and eighteen model animals were prepared as a control group, the tricaprylin administration group, and the tricaprin administration group, respectively.
The horizontal axis indicates the number of days (day) from Day 0 when the abdominal aortic aneurysm induction treatment was performed, and the vertical axis indicates the survival rate (%). The survival rate declined on Day 17 in the control, while the survival rate remained 100% until Day 26 in the tricaprylin administration group. […] The tricaprin administration group maintained the 100% survival rate during the test period.
Referring to FIG. 2, the horizontal axis indicates which measurements are from the normal blood vessel and which are from the blood vessel at the abdominal aortic aneurysm induction part; the vertical axis indicates the diameter (mm) of the aorta. The normal blood vessel refers to the normal aorta at the upper and lower sides of the part in which the abdominal aortic aneurysm was induced.

Where [1] appears, read: Example 1, number of rats among rats with observed abdominal aortic aneurysms.
Where [2] appears, read: Example 2, number of rats among rats with observed abdominal aortic aneurysms.
Setting [3] is: Example 2, 11 rats tricaprylin group, 18 rats tricaprin group.

Consider 2 molecules from patent US20220323385A1, “PHARMACEUTICAL COMPOSITION FOR AORTIC ANEURYSM PROPHYLAXIS AND PROCESSED FOOD” (priority 2019, published 2022).

Consider `CCCCCCCCCC(=O)OCC(COC(=O)CCCCCCCCC)OC(=O)CCCCCCCCC` [Tricaprin], for which the “diameter of the aorta in the abdominal aortic aneurysm induction part” value was “about 2.2 mm”. The “Frequency of occurrence (%) of abdominal aortic aneurysm” value (Example 1, 1,145 mg/kg body-weight/day, four weeks after induction treatment, control group 38.9%) was 12.5%. Under setting [1], the “Rapture confirmed (abdominal aortic aneurysm)” value turned out to be 0 and the “Rapture not confirmed (abdominal aortic aneurysm)” value turned out to be 1. Further, where the note is “Example 1, 8 rats in group, 1,145 mg/kg body-weight/day forcibly administered, four weeks after induction treatment”, the “Occurrence not confirmed (abdominal aortic aneurysm)” value worked out at 7. Further, the “Occurrence confirmed (abdominal aortic aneurysm)” value (Example 1, 8 rats in group, vessel dilated to twice or more its original thickness, 1,145 mg/kg body-weight/day) is listed as 1. Further, the “Rupture rate (%) of abdominal aortic aneurysm” value (Example 1, listed as Medium chain fatty acid) came to 0%. Under “Example 1, listed as medium chain fatty acid”, the “Rupture rate (%) of abdominal aortic aneurysm” value is 0.0%. Moreover, the “survival rate (%)” value (during the test period) came to 100%. Moreover, the “Frequency of occurrence (%) of abdominal aortic aneurysm” value (Example 2, control group 30.4%) came to 5.6%. Under setting [2], the “Occurrence confirmed (Table 4, Rupture rate of abdominal aortic aneurysm)” value is on record as 0 and the “Occurrence not confirmed (Table 4, Rupture rate of abdominal aortic aneurysm)” value came to 1. Moreover, under setting [3], the “Occurrence confirmed (abdominal aortic aneurysm)” value came out at 1 and the “Occurrence not confirmed (abdominal aortic aneurysm)” value was 17. Under “Example 2”, the “Frequency of occurrence (%) (Table 4, Rupture rate of abdominal aortic aneurysm)” value is recorded as 0%. The “Frequency of occurrence (%) (Table 4, Rupture rate of abdominal aortic aneurysm)” value (Example 2, listed as tricaprin) is 0.0%.
`CCCCCCCC(=O)OCC(COC(=O)CCCCCCC)OC(=O)CCCCCCC` [Tricaprylin]: the “diameter of the aorta in the abdominal aortic aneurysm induction part” value is recorded as “about 3.5 mm”. Also, under “until Day 26 after induction treatment, control declined on Day 17”, the “survival rate (%)” value worked out at 100%. For the same molecule, the “Frequency of occurrence (%) of abdominal aortic aneurysm” value (Example 2, control group 30.4%) came out at 27.3%. Besides, under setting [2], the “Occurrence confirmed (Table 4, Rupture rate of abdominal aortic aneurysm)” value is reported as 1 and the “Occurrence not confirmed (Table 4, Rupture rate of abdominal aortic aneurysm)” value stood at 2. For the same molecule, under setting [3], the “Occurrence confirmed (abdominal aortic aneurysm)” value was 3 and the “Occurrence not confirmed (abdominal aortic aneurysm)” value was found to be 8. The “Frequency of occurrence (%) (Table 4, Rupture rate of abdominal aortic aneurysm)” value (Example 2) was found to be 33.3%.
